This passage reports Ki and EC50 results from patent US20130178413A1, “HCV NS3 PROTEASE INHIBITORS” (priority 2010, published 2013).

One experiment deals with NS3/4A protease gt 3a (Hepatitis C virus genotype 3a, UniProt Q81258). The experiment in a line: HCV NS3 protease time-resolved fluorescence (TRF) assay, NS3/4A inhibitory activity (Ki), gt 3a. Format: biochemical. Particulars: genotype 3a NS3/4A; read-out: Enzyme Activity gt 3a Ki. The protocol: (§1) The HCV NS3 protease inhibitory activity of the present compounds may be tested using assays known in the art. One such assay is HCV NS3 protease time-resolved fluorescence (TRF) assay as described below and in International Patent Application Publication WO2006/102087. Other examples of such assays are described in e.g., International Patent Application Publication WO2005/046712. HCV NS3 protease inhibitors, such as those described herein have a Ki less than 50 μM, such as less than 10 μM, and less than 100 nM. Ki is determined by an NS3 protease assay. The assay is performed in a final volume of 100 μl in assay buffer containing 50 mM HEPES, pH 7.5, 150 mM NaCl, 15% glycerol, 0.15% TRITON X-100, 10 mM DTT, and 0.1% PEG 8000. NS3 protease is pre-incubated with various concentrations of inhibitors in DMSO for 30 minutes. The reaction is initiated by adding the TRF peptide substrate (final concentration 100 nM). NS3 mediated hydrolysis of the substrate is quenched after 1 hour at room temperature with 100 μl of 500 mM MES, pH 5.5. Product fluorescence is detected using either a VICTOR V2 or FUSION fluorophotometer (Perkin Elmer Life and Analytical Sciences) with excitation at 340 nm and emission at 615 nm with a 400 μs delay. Testing concentrations of different enzyme forms are selected to result in a signal to background ratio (S/B) of 10-30. IC50 values are derived using a standard four-parameter fit to the data. Ki values are derived from IC50 values using the following formula,
(§2) IC50=Ki(1+[S]/KM), Eqn (1),
(§3) where [S] is the concentration of substrate peptide in the reaction and KM is the Michaelis constant. See P. Gallinari et al., 38 BIOCHEM. 5620-32 (1999); P. Gallinari et al., 72 J. VIROL. 6758-69 (1998); M. Taliani et al., 240 ANAL. BIOCHEM. 60-67 (1996).
(§4) One such assay is HCV NS3 protease time-resolved fluorescence (TRF) assay as described below and in Mao et al., Anal Biochem. 373:1-8, 2008 and International Patent Application Publication WO 2006/102087. A NS3 protease assay can be performed, for example, in a final volume of 100 μl assay buffer containing 50 mM HEPES, pH 7.5, 150 mM NaCl, 15% glycerol, 0.15% TRITON X-100, 10 mM DTT, and 0.1% PEG 8000. NS3 and NS4A protease is pre-incubated with various concentrations of inhibitors in DMSO for 30 minutes. The reaction is initiated by adding the TRF peptide substrate (final concentration 100 nM). NS3 mediated hydrolysis of the substrate is quenched after 1 hour at room temperature with 100 μl of 500 mM MES, pH 5.5. Product fluorescence is detected using either a VICTOR V2 or FUSION fluorophotometer (Perkin Elmer Life and Analytical Sciences) with excitation at 340 nm and emission at 615 nm with a 400 μs delay. Testing concentrations of different enzyme forms are selected to result in a signal to background ratio (S/B) of 10-30. IC50 values are derived using a standard four-parameter fit to the data. Ki values are derived from IC50 values using the following formula,
(§5) where [S] is the concentration of substrate peptide in the reaction and KM is the Michaelis constant. See P. Gallinari et al., 38 BIOCHEM. 5620-32 (1999); P. Gallinari et al., 72 J. VIROL. 6758-69 (1998); M. Taliani et al., 240 ANAL. BIOCHEM. 60-67 (1996); Mao et al., Analytical Biochemistry 373: 1-8, 2008. Measuring Compound Inhibitory Potency (Replicon EC50 (nM))

Experiment [1] has as its target NS3/4A protease gt 1b A156V (Hepatitis C virus genotype 1b, UniProt P26663, A1182V). The experiment is described as follows: HCV NS3 protease time-resolved fluorescence (TRF) assay, NS3/4A inhibitory activity (Ki), gt 1b A156V mutant. Type of experiment: biochemical, hepatitis C virus (HCV). The protocol:
as §1, §2, §3, §4, §5

A further experiment relates to gt 1b Replicon. The experiment is described as follows: HCV replicon assay, compound inhibitory potency (Replicon EC50). The conditions noted are these: Hepatitis C virus, GT1B. Type of experiment: cell-based. The protocol: Measurement of inhibition by compounds was performed using the HCV replicon system. Several different replicons encoding different HCV genotypes or mutations were used. In addition, potency measurements were made using different formats of the replicon assay, including different ways of measurements and different plating formats. See Jan M. Vrolijk et al., A replicons-based bioassay for the measurement of interferons in patients with chronic hepatitis C, 110 J. VIROLOGICAL METHODS 201 (2003); Steven S. Carroll et al., Inhibition of Hepatitis C Virus RNA Replication by 2′-Modified Nucleoside Analogs, 278(14) J. BIOLOGICAL CHEMISTRY 11979 (2003). However, the underlying principles are common to all of these determinations, and are outlined below.
Stable neomycin phosphotransferase encoding replicon-harboring cell lines were used, so all cell lines were maintained under G418 selection prior to the assay. In some cases the cell lines encoded a luciferase:Neor fusion and could be assayed either directly by determination of RNA copy number, or indirectly through measurement of the luciferase activity.
To initiate an assay, replicon cells were plated in the presence of a dilution series of test compound in the absence of G418. Typically, the assays were performed in a 96-well plate format for manual operation, or a 384 well plate in an automated assay. Replicon cells and compound were incubated for 24-48 hours, depending on the assay. At the end of the assay, cells are washed free of media and compound and then lysed. For direct quantitation, RNA levels were measured by ^32P-probe hybridization and protection, or in a TAQMAN based assay and normalized to cellular cyclophilin A RNA levels. In some cases, luciferase activity was measured using a conventional luciferase assay. In all cases EC50 determinations were calculated as a percent of a DMSO control by fitting the data to a four parameter fit function.
Background: A replicon is a self-replicating genome or part of one, used to study replication in cells.

For the next experiment, the target named is NS3/4A protease gt 1b (Hepatitis C virus genotype 1b, UniProt P26663). The experiment is described as follows: HCV NS3 protease time-resolved fluorescence (TRF) assay, NS3/4A inhibitory activity (Ki), gt 1b. Type of experiment: biochemical. Particulars: genotype 1b NS3/4A; read-out: Enzyme Activity gt 1b Ki. The protocol: as §1, §2, §3, §4, §5
The mark [2] stands for this setting: 10% Fetal Bovine Serum, read-out: gt 1b Replicon EC50 10% FBS.
[3] abbreviates: 50% Normal Human Serum, read-out: gt 1b Replicon EC50 50% NHS.

As usually defined, the Ki is the equilibrium dissociation constant of an inhibitor or competing ligand from its target. By EC50 is commonly meant the midpoint of the concentration-response curve.

Molecules are shown by their SMILES. Read-outs that look alike come from different tables or passages of the source.

As to `C=C[C@@H]1C[C@]1(NC(=O)[C@@H]1C[C@@H]2CN1C(=O)[C@H](C(C)(C)C)NC(=O)O[C@]1(C)C[C@H]1CCCCCc1nc3ccccc3nc1O2)C(=O)NS(=O)(=O)C1CC1` [Example I-8, (1aR,5S,8S,10R,22aR)-5-tert-butyl-N-{(1R,2S)-1-[(cyclopropylsulfonyl)carbamoyl]-2-ethenylcyclopropyl}-1a-methyl-3,6-dioxo-1,1a,3,4,5,6,9,10,18,19, 20,21,22,22a-tetra decahydro-8H-7,10-methanocyclopropa[18, 19][1,10,3,6]dioxatriaza cyclononadecino[11,12-b]quinoxaline-8-carboxamide], the Ki at NS3/4A protease gt 3a is 0.5 nM; in experiment [1], 11.5 nM; at NS3/4A protease gt 1b, 0.02 nM. For the same molecule, the half-maximal effective concentration (EC50) in the experiment on gt 1b Replicon (setting [2]) was 2 nM; in the experiment with gt 1b Replicon (setting [3]) it was 6 nM.

On to `C=C[C@@H]1C[C@]1(NC(=O)[C@@H]1C[C@@H]2CN1C(=O)[C@H](C(C)(C)C)NC(=O)O[C@]1(C)C[C@H]1CCCCCc1nc3ccc(OC)cc3cc1O2)C(=O)NS(=O)(=O)C1CC1` [Example I-10, (1aR,5S,8S,10R,22aR)-5-tert-butyl-N-{(1R,2S)-1-[(cyclopropylsulfonyl)carbamoyl]-2-ethenylcyclopropyl}-14-methoxy-1a-methyl-3,6-dioxo-1,1a,3,4,5,6,9,10,18,19,20,21,22, 22a-tetradecahydro-8H-7,10-methanocyclo propa[18,19][1,10,3,6] dioxadiazacyclonona decino[12,11-b] quinoline-8-carboxamide], for which the values for the Ki (at NS3/4A protease gt 3a; in experiment [1]; on NS3/4A protease gt 1b) were 0.2 nM, 4.2 nM and 0.02 nM, respectively. The figures for the concentration giving a half-maximal response (EC50) with gt 1b Replicon (setting [2]) and in the experiment on gt 1b Replicon (setting [3]) were 4 nM and 10 nM, respectively.

For the molecule `C=C[C@@H]1C[C@]1(NC(=O)[C@@H]1C[C@@H]2CN1C(=O)[C@H](C1CCCC1)NC(=O)O[C@]1(C)C[C@H]1CCC/C=C/c1cccc3c1CN(C3)C(=O)O2)C(=O)NS(=O)(=O)C1CC1` [Example I-12, (1aR,5S,8S,10R,19E,23aR)-5-cyclopentyl-N-{(1R,2S)-1-[(cyclopropylsulfonyl)carbamoyl]-2-ethenylcyclopropyl}-1a-methyl-3,6,12-trioxo-1a,3,4,5,6,9,10, 14,21,22,23,23a-dodecahydro-1H,8H-7,10:13,15-dimethano cyclopropa[n][4,13,2,8, 11]benzodioxatriaza cyclodocosine-8(12H)-carboxamide], the Ki on NS3/4A protease gt 3a turned out to be 12 nM; in experiment [1], 1.4 nM; on NS3/4A protease gt 1b, 0.02 nM. The results for the EC50 in the experiment on gt 1b Replicon (setting [2]) and in the experiment on gt 1b Replicon (setting [3]) were 5 nM and 19 nM, respectively.

For the molecule `C=C[C@@H]1C[C@]1(NC(=O)[C@@H]1C[C@@H]2CN1C(=O)[C@H](C1CCCC1)NC(=O)O[C@]1(C)C[C@H]1CCCCCc1cccc3c1CN(C3)C(=O)O2)C(=O)NS(=O)(=O)C1CC1` [Example I-13, (1aR,5S,8S,10R,23aR)-5-cyclopentyl-N-{(1R,2S)-1-[(cyclopropylsulfonyl)carbamoyl]-2-ethenylcyclopropyl}-1a-methyl-3,6,12-trioxo-1a,3,4,5,6,9,10, 14,19,20,21,22,23,23a-tetradecahydro-1H,8H-7,10:13,15-dimethano cyclopropa[n][4,13,2,8, 11]benzodioxatriaza cyclodocosine-8(12H)-carboxamide], the Ki was 32.9 nM at NS3/4A protease gt 3a, 0.4 nM in experiment [1] and 0.02 nM on NS3/4A protease gt 1b. For the same molecule, the EC50 in the experiment with gt 1b Replicon (setting [2]) amounted to 4 nM; in the experiment on gt 1b Replicon (setting [3]), 16 nM.

`C=C[C@@H]1C[C@]1(NC(=O)[C@@H]1C[C@@H]2CN1C(=O)[C@H](C1CCCC1)NC(=O)O[C@]1(C)CCC[C@H]1CCCCCc1c(nc3ccccc3c1O)O2)C(=O)NS(=O)(=O)C1CC1` [Example I-16, (3aR,7S,10S,12R,24aR)-7-cyclopentyl-N-{(1R,2S)-1-[(cyclopropylsulfonyl)carbamoyl]-2-ethenylcyclopropyl}-19-hydroxy-3a-methyl-5,8-dioxo-1,2,3,3a,5,6,7,8,11,12,20,21,22,23,24, 24a-hexadecahydro-10H-9,12-methano cyclopenta[18,19][1,10,3,6]dioxadiazacyclo nonadecino[11,12-b]quinoline-10-carboxamide]: the Ki stood at 1.4 nM at NS3/4A protease gt 3a, 2.4 nM in experiment [1] and 0.02 nM on NS3/4A protease gt 1b. Besides, the results for the EC50 in the experiment with gt 1b Replicon (setting [2]) and in the experiment with gt 1b Replicon (setting [3]) were 9 nM and 27 nM, respectively.

Take `CC[C@@H]1C[C@]1(NC(=O)[C@@H]1C[C@@H]2CN1C(=O)[C@H](C1CCCC1)NC(=O)O[C@]1(C)CCC[C@H]1CCCCCc1c(nc3ccccc3c1O)O2)C(=O)NS(=O)(=O)C1CC1` [Example I-18, (3aR,7S,10S,12R,24aR)-7-cyclopentyl-N-{(1R,2R)-1-[(cyclopropylsulfonyl)carbamoyl]-2-ethylcyclopropyl}-19-hydroxy-3a-methyl-5,8-dioxo-1,2,3,3a,5,6,7,8,11,12,20,21,22,23,24, 24a-hexadecahydro-10H-9,12-methano cyclopenta[18,19][1,10,3,6]dioxadiazacyclo nonadecino[11,12-b]quinoline-10-carboxamide]: the inhibitory constant (Ki) stood at 9.2 nM on NS3/4A protease gt 3a, 42.5 nM in experiment [1] and 0.07 nM on NS3/4A protease gt 1b. Also, the figures for the EC50 in the experiment with gt 1b Replicon (setting [2]) and in the experiment with gt 1b Replicon (setting [3]) were 30 nM and 35 nM, respectively.
